Data on 31 compounds can be found in US9212182B2, “Bicyclic sulfonamide compounds as sodium channel inhibitors” (AMGEN INC., priority 2013, dated 2015).

Nav 1.7, sequence (Q15858 whole entry): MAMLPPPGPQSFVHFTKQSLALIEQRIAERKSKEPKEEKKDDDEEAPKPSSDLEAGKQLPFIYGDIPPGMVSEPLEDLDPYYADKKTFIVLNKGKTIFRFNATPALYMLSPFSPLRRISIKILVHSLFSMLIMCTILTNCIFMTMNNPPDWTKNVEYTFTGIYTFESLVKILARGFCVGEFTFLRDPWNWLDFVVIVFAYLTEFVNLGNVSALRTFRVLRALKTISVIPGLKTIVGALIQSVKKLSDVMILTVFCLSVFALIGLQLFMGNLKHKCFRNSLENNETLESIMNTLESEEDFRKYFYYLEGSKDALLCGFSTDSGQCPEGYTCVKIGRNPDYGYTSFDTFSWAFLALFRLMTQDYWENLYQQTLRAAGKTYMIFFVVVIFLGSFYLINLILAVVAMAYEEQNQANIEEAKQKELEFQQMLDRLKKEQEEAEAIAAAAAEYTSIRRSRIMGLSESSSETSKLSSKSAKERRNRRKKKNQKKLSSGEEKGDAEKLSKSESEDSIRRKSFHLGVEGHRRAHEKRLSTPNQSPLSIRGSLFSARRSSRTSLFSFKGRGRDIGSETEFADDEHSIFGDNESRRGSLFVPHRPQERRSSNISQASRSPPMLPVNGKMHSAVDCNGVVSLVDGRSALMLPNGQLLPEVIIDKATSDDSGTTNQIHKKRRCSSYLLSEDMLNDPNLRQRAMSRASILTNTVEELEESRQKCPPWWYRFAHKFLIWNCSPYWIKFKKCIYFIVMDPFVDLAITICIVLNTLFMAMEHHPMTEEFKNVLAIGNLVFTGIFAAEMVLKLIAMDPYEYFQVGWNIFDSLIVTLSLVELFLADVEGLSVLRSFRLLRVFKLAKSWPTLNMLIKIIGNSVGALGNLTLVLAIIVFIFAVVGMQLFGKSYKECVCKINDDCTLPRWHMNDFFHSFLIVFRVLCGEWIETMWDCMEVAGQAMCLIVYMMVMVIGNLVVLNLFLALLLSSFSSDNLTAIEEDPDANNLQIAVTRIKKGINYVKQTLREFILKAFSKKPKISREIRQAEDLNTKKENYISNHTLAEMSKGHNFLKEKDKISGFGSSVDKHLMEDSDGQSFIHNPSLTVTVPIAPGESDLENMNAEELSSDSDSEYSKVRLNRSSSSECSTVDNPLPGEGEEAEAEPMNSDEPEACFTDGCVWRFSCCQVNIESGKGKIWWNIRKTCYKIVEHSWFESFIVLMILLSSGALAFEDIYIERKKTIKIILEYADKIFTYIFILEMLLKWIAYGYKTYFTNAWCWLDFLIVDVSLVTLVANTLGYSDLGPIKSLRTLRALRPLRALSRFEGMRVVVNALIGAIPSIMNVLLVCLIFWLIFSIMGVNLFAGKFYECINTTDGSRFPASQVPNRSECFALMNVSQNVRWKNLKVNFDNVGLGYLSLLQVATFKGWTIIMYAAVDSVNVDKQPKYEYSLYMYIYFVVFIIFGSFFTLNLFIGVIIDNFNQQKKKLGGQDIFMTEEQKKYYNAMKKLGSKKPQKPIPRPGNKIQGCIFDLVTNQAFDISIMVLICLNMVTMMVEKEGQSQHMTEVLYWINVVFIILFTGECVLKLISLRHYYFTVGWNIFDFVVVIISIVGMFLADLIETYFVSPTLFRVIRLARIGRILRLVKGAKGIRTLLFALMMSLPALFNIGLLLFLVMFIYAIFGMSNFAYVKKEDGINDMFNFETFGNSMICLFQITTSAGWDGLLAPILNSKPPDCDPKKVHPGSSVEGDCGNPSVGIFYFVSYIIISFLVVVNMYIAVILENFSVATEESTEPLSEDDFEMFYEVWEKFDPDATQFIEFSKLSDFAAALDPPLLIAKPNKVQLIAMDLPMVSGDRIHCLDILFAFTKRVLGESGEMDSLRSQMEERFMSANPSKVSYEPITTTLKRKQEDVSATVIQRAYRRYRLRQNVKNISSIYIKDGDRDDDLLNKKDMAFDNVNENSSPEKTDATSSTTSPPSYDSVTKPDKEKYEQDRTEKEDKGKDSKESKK

One experiment has as its target Nav 1.7 (Homo sapiens (Human), UniProt Q15858). The experiment can be described thus: in-vitro Nav 1.7 PX (IC50).
Details: not given
In kind it is cell-based.
For orientation: IC50 means the concentration at which inhibition is half-maximal. The low end stands for greater potency in that assay, the high end for weaker potency in that assay. Turning to `O=c1ccc2cc(S(=O)(=O)Nc3ccon3)ccc2n1-c1cc(F)c(-c2cc(F)cc(F)c2)cc1OC1CNC1` [Example 670, 1-(5-(azetidin-3-yloxy)-2,3′,5′-trifluoro-[1,1′-biphenyl]-4-yl)-N-(isoxazol-3-yl)-2-oxo-1,2-dihydroquinoline-6-sulfonamide 2,2,2-trifluoroacetate], the IC50 was 39 nM.

Still in this experiment, the particulars now being: in-vitro Nav 1.7 PX data.
The compound `COc1nc(C#CC2CCCC2)c(Cl)cc1-n1c(=O)ccc2cc(S(=O)(=O)Nc3cccnn3)ccc21` [Example 646, 1-(5-chloro-6-(cyclopentylethynyl)-2-methoxy-3-pyridinyl)-2-oxo-N-3-pyridazinyl-1,2-dihydro-6-quinolinesulfonamide] yielded a concentration for half-maximal inhibition (IC50) of 1100 nM.
Same read-out and setting: the result for `COc1nc(NC2CCCC2)c(Cl)cc1-n1c(=O)ccc2cc(S(=O)(=O)Nc3ccon3)ccc21` [Example 648, 1-(5-chloro-6-(cyclopentylamino)-2-methoxy-3-pyridinyl)-N-3-isoxazolyl-2-oxo-1,2-dihydro-6-quinolinesulfonamide] reads 984 nM.
Regarding `COc1cc(-c2ccc(Cl)c(C)c2)ccc1-n1c(=O)ccc2cc(S(=O)(=O)Nc3cnccn3)ccc21` [Example 659, 1-(4′-chloro-3-methoxy-3′-methyl-4-biphenylyl)-2-oxo-N-2-pyrazinyl-1,2-dihydro-6-quinolinesulfonamide], the IC50 was 35 nM.
Still for that read-out and setting: for `CC(C#N)Oc1cc(-c2cc(F)cc(F)c2)c(F)cc1-n1c(=O)ccc2cc(S(=O)(=O)Nc3ccon3)ccc21` (stereo not shown) [Example 681, 1-(5-(1-cyanoethoxy)-2,3′,5′-trifluoro-[1,1′-biphenyl]-4-yl)-N-(isoxazol-3-yl)-2-oxo-1,2-dihydroquinoline-6-sulfonamide] the value was 458 nM; for `COc1ccc(-c2cc(OC)c(-n3c(=O)ccc4cc(S(=O)(=O)Nc5ccon5)ccc43)cc2F)c(Cl)c1` [Example 699, 1-(2′-chloro-2-fluoro-4′,5-dimethoxy-4-biphenylyl)-N-3-isoxazolyl-2-oxo-1,2-dihydro-6-quinolinesulfonamide], 37 nM.
The same measure, in the same setting: the result for `COc1cc(-c2cc(OC)c(-n3c(=O)ccc4cc(S(=O)(=O)Nc5ccon5)ccc43)cc2F)ccc1Cl` [Example 700, 1-(4′-chloro-2-fluoro-3′,5-dimethoxy-4-biphenylyl)-N-3-isoxazolyl-2-oxo-1,2-dihydro-6-quinolinesulfonamide] reads 5 nM; that for `COc1cc(-c2ccccc2)c(F)cc1-n1c(=O)ccc2cc(S(=O)(=O)Nc3ccon3)ccc21` [Example 701, 1-(2-fluoro-5-methoxy-4-biphenylyl)-N-3-isoxazolyl-2-oxo-1,2-dihydro-6-quinolinesulfonamide], 104 nM.
On the same count and under the same terms, for `COc1ccc(-c2cc(OC)c(-n3c(=O)ccc4cc(S(=O)(=O)Nc5ccon5)ccc43)cc2F)c(F)c1` [Example 702, 1-(2,2′-difluoro-4′,5-dimethoxy-4-biphenylyl)-N-3-isoxazolyl-2-oxo-1,2-dihydro-6-quinolinesulfonamide] the value was 22 nM.
With `COc1cc(-c2cccc(Cl)c2F)c(F)cc1-n1c(=O)ccc2cc(S(=O)(=O)Nc3ccon3)ccc21` [Example 703, 1-(3′-chloro-2,2′-difluoro-5-methoxy-4-biphenylyl)-N-3-isoxazolyl-2-oxo-1,2-dihydro-6-quinolinesulfonamide], the concentration for half-maximal inhibition (IC50) is 5 nM.
Turning to `COc1cc(-c2ccc(C)c(C)c2)c(F)cc1-n1c(=O)ccc2cc(S(=O)(=O)Nc3ccon3)ccc21` [Example 704, 1-(2-fluoro-5-methoxy-3′,4′-dimethyl-4-biphenylyl)-N-3-isoxazolyl-2-oxo-1,2-dihydro-6-quinolinesulfonamide], it took 16 nM to reach half-maximal inhibition (IC50).
`COc1ccc(-c2cc(OC)c(-n3c(=O)ccc4cc(S(=O)(=O)Nc5ccon5)ccc43)cc2F)cc1F` [Example 705, 1-(2,3′-difluoro-4′,5-dimethoxy-4-biphenylyl)-N-3-isoxazolyl-2-oxo-1,2-dihydro-6-quinolinesulfonamide] had an IC50 of 41 nM.
On the same count and under the same terms, the result for `COc1cc(-c2cc(C)cc(C)c2)c(F)cc1-n1c(=O)ccc2cc(S(=O)(=O)Nc3ccon3)ccc21` [Example 706, 1-(2-fluoro-5-methoxy-3′,5′-dimethyl-4-biphenylyl)-N-3-isoxazolyl-2-oxo-1,2-dihydro-6-quinolinesulfonamide] reads 14 nM; that for `COc1cc(-c2cc(Cl)ccc2F)c(F)cc1-n1c(=O)ccc2cc(S(=O)(=O)Nc3ccon3)ccc21` [Example 707, 1-(5′-chloro-2,2′-difluoro-5-methoxy-4-biphenylyl)-N-3-isoxazolyl-2-oxo-1,2-dihydro-6-quinolinesulfonamide], 12 nM; that for `COc1cc(C)cc(-c2cc(OC)c(-n3c(=O)ccc4cc(S(=O)(=O)Nc5ccon5)ccc43)cc2F)c1` [Example 708, 1-(2-fluoro-3′,5-dimethoxy-5′-methyl-4-biphenylyl)-N-3-isoxazolyl-2-oxo-1,2-dihydro-6-quinolinesulfonamide], 10 nM.
On the same count and under the same terms, for `COc1cccc(-c2cc(OC)c(-n3c(=O)ccc4cc(S(=O)(=O)Nc5ccon5)ccc43)cc2F)c1` [Example 709, 1-(2-fluoro-3′,5-dimethoxy-4-biphenylyl)-N-3-isoxazolyl-2-oxo-1,2-dihydro-6-quinolinesulfonamide] the value was 47 nM; for `COc1cc(F)cc(-c2cc(OC)c(-n3c(=O)ccc4cc(S(=O)(=O)Nc5ccon5)ccc43)cc2F)c1` [Example 710, 1-(2,3′-difluoro-5,5′-dimethoxy-4-biphenylyl)-N-3-isoxazolyl-2-oxo-1,2-dihydro-6-quinolinesulfonamide], 14 nM.
Compound `COc1cc(-c2cc(F)cc(C(F)(F)F)c2)c(F)cc1-n1c(=O)ccc2cc(S(=O)(=O)Nc3ccon3)ccc21` [Example 711, 1-(2,3′-difluoro-5-methoxy-5′-(trifluoromethyl)-4-biphenylyl)-N-3-isoxazolyl-2-oxo-1,2-dihydro-6-quinolinesulfonamide] had an IC50 of 9 nM.
Same read-out and setting: the result for `COc1cc(-c2cccc(Cl)c2C)c(F)cc1-n1c(=O)ccc2cc(S(=O)(=O)Nc3ccon3)ccc21` [Example 712, 1-(3′-chloro-2-fluoro-5-methoxy-2′-methyl-4-biphenylyl)-N-3-isoxazolyl-2-oxo-1,2-dihydro-6-quinolinesulfonamide] reads 6 nM; that for `COc1cc(-c2cc(OC)c(-n3c(=O)ccc4cc(S(=O)(=O)Nc5ccon5)ccc43)cc2F)ccc1F` [Example 713, 1-(2,4′-difluoro-3′,5-dimethoxy-4-biphenylyl)-N-3-isoxazolyl-2-oxo-1,2-dihydro-6-quinolinesulfonamide], 15 nM.
The same measure, in the same setting: for `COc1ccc(C)cc1-c1cc(OC)c(-n2c(=O)ccc3cc(S(=O)(=O)Nc4ccon4)ccc32)cc1F` [Example 714, 1-(2-fluoro-2′,5-dimethoxy-5′-methyl-4-biphenylyl)-N-3-isoxazolyl-2-oxo-1,2-dihydro-6-quinolinesulfonamide] the value was 48 nM; for `COc1cc(-c2cc(C)cnc2OC)c(F)cc1-n1c(=O)ccc2cc(S(=O)(=O)Nc3ccon3)ccc21` [Example 715, 1-(5-fluoro-2-methoxy-4-(2-methoxy-5-methyl-3-pyridinyl)phenyl)-N-3-isoxazolyl-2-oxo-1,2-dihydro-6-quinolinesulfonamide], 151 nM; for `COc1cc(-c2cc(C)ccc2Cl)c(F)cc1-n1c(=O)ccc2cc(S(=O)(=O)Nc3ccon3)ccc21` [Example 716, 1-(2′-chloro-2-fluoro-5-methoxy-5′-methyl-4-biphenylyl)-N-3-isoxazolyl-2-oxo-1,2-dihydro-6-quinolinesulfonamide], 6 nM.
With `COc1ccc(C#N)cc1-c1cc(OC)c(-n2c(=O)ccc3cc(S(=O)(=O)Nc4ccon4)ccc32)cc1F` [Example 718, 1-(5′-cyano-2-fluoro-2′,5-dimethoxy-4-biphenylyl)-N-3-isoxazolyl-2-oxo-1,2-dihydro-6-quinolinesulfonamide], the concentration for half-maximal inhibition (IC50) is 153 nM.
The same measure, in the same setting: the result for `COc1cc(-c2cccc(C)c2F)c(F)cc1-n1c(=O)ccc2cc(S(=O)(=O)Nc3ccon3)ccc21` [Example 719, 1-(2,2′-difluoro-5-methoxy-3′-methyl-4-biphenylyl)-N-3-isoxazolyl-2-oxo-1,2-dihydro-6-quinolinesulfonamide] reads 49 nM; that for `COc1cc(-c2cc(OC)c(-n3c(=O)ccc4cc(S(=O)(=O)Nc5ccon5)ccc43)cc2F)ccc1C#N` [Example 720, 1-(4′-cyano-2-fluoro-3′,5-dimethoxy-4-biphenylyl)-N-3-isoxazolyl-2-oxo-1,2-dihydro-6-quinolinesulfonamide], 54 nM; that for `COc1cc(-c2cncc(C(F)(F)F)c2)c(F)cc1-n1c(=O)ccc2cc(S(=O)(=O)Nc3ccon3)ccc21` [Example 721, 1-(5-fluoro-2-methoxy-4-(5-(trifluoromethyl)-3-pyridinyl)phenyl)-N-3-isoxazolyl-2-oxo-1,2-dihydro-6-quinolinesulfonamide], 32 nM.
`COc1cc(-c2cnc(F)c(C)c2)c(F)cc1-n1c(=O)ccc2cc(S(=O)(=O)Nc3ccon3)ccc21` [Example 722, 1-(5-fluoro-4-(6-fluoro-5-methyl-3-pyridinyl)-2-methoxyphenyl)-N-3-isoxazolyl-2-oxo-1,2-dihydro-6-quinolinesulfonamide] registered a concentration for half-maximal inhibition (IC50) of 178 nM.
Same read-out and setting: the result for `COc1cc(Cl)cc(-c2cc(OC)cc(-c3cc(OC)c(-n4c(=O)ccc5cc(S(=O)(=O)Nc6ccon6)ccc54)cc3F)c2)c1` [Example 723, 1-(3″-chloro-2-fluoro-5,5′,5″-trimethoxy-1,1′:3′,1″-terphenyl-4-yl)-N-3-isoxazolyl-2-oxo-1,2-dihydro-6-quinolinesulfonamide] reads 7 nM; that for `COc1cc(-c2ccc(C)cc2Cl)c(F)cc1-n1c(=O)ccc2cc(S(=O)(=O)Nc3ccon3)ccc21` [Example 725, 1-(2′-chloro-2-fluoro-5-methoxy-4′-methyl-4-biphenylyl)-N-3-isoxazolyl-2-oxo-1,2-dihydro-6-quinolinesulfonamide], 12 nM.

Still in this experiment, the particulars now being: in-vitro Nav 1.7 PX data (PatchXpress).
With `CC(C#N)Oc1cc(Br)c(F)cc1-n1c(=O)ccc2cc(S(=O)(=O)Nc3ccon3)ccc21` (stereo not shown) [Example 680, 1-(4-bromo-2-(1-cyanoethoxy)-5-fluorophenyl)-N-(isoxazol-3-yl)-2-oxo-1,2-dihydroquinoline-6-sulfonamide], the IC50 worked out at 25400 nM.
